Measurements from publication PMC12175168, “Refining the Amino Reactivity-Based Identification of Respiratory Sensitizers” (Chemical Research in Toxicology, 2025).
Several values for one entry are separate records, joined by “and”; a condition that tells them apart may be missing. Equal values may be shown once. Entries after “also recorded” stand apart in the source; their conditions may differ.

How the values were obtained:
physchem = assay: physchem
Protocol: To this end, the test compound was dissolved in 1 mL ACN in a glass vial. […] As reaction batches, 1.8 mL glass vials equipped with 400 μL glass inserts were used and filled with 220 μL of the respective aqueous buffer and 80 μL of the test compound stock solution. The depletion of the test compounds was recorded with the HPLC UV–vis instrument used for the kinetic Gly-pNA chemoassay. , Chromatographic separation of the reaction mixture was achieved using the gradient described for the Gly-pNA chemoassay previously , and an isocratic HPLC method (water/ACN 70:30, both with 0.1 vol % formic acid). The wavelengths used for the detection of the compound and the information on the used chromatographic method are given in the Supporting Information in Table S3.

DPRA lysine peptide = system: DPRA lysine peptide; parameters: method as in literature; conditions: AAB pH 10.2, 24 h; ref literature; cited from earlier work
[1] = DPRA-like chemoassay with Lys-pNA (24 h percent depletion); conditions: 25 °C, 50-fold excess of test compound
Protocol: (§1) In addition to the kinetic Gly-pNA chemoassay, the reactivity of the 27 compounds toward Gly-pNA and Lys-pNA was determined in terms of percentage depletions after reacting for 24 h at 25 °C employing the following DPRA-like setup: stock solutions for the test compounds were prepared by gravimetrically adding at least 3 mg of the respective compound into a glass vial (total volume 1.8 mL) and subsequent addition of 1 mL ACN. […] The stock solutions for Gly-pNA and Lys-pNA with a final concentration of 1.7 mM were prepared by dissolving the required amount in one of the three aqueous buffer solutions used for this DPRA-like chemoassay: phosphate buffer (80 mM, pH 7.4), phosphate buffer (80 mM, pH 10.2), and ammonium acetate buffer (100 mM, pH 10.2). Glass vials (1.8 mL) were used as reaction vessels.
(§2) In the final reaction mixtures, the concentration of Gly-pNA or Lys-pNA was 0.03 mM, and the test compound was 50 times in excess (1.5 mM). After incubation for 24 h at 25 °C, the free amount of either Gly-pNA or Lys-pNA was determined using the HPLC UV–vis method described for the kinetic Gly-pNA chemoassay. , The percentage depletion of Gly-pNA (D Gly) or Lys-pNA (D Lys) was determined directly from peak areas according to eq 3 Dx[%]=(Axcontrol−Ax/Axcontrol×100)withx=GlyorLys
(§3) In eq , A x and A x ^control are the peak areas of the chromatographic signal of either Gly-pNA (x = Gly) or Lys-pNA (x = Lys) at 315 nm after 24 h incubation with and without test compound, respectively.
(§4) Summary of experimental conditions of the DPRA-like setups used to determine
(§5) DGly, D Lys, and D DPRA data in Table 2 (main text).
(§6) Table S2. Overview of experimental conditions for the DPRA-like setups used to
(§7) determine 24 h percentage depletion rates for the reaction of the test compounds with
(§8) Gly-pNA, Lys-pNA, and the DPRA lysine peptide (literature data).

[2] = Kinetic Gly-pNA chemoassay (second-order rate constant k Gly);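 also: Gly-pNA depletion followed over time by chromatographic peak area, with test compound in at least tenfold excess (pseudo-first-order), added from acetonitrile stock, at least three runs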
Protocol: The reactivity of the 27 test compounds toward Gly-pNA was quantified in terms of the second-order reaction rate constant k Gly using our Gly-pNA chemoassay. , In brief, stock solutions of the test compound were freshly obtained every day by gravimetrically adding the required amount into a 10 mL volumetric flask, which was subsequently filled to volume with acetonitrile (ACN). The required amounts of test compounds depended on their reactivity toward Gly-pNA. […] As usual for kinetic studies, fast reacting chemicals are applied at lower concentrations than little reactive candidates. All stock solutions were stored at 25 °C in a climate chamber before first use (ca. 30 min) and for repeating an experiment (max. 6 h). Gly-pNA stock solution (1.69 mM) was obtained by dissolving 3.3 mg Gly-pNA in 10 mL phosphate buffer solution (80 mM) and could be used for several weeks if stored at 4 °C. For all chemoassay experiments, 1.8 mL glass vials were used as reaction batches, which were initially filled with 1070 μL phosphate buffer (80 mM) and 30 μL Gly-pNA stock solution. To start the reaction, 400 μL of the test compound stock solutions was added. […] The time between the start of the reaction and the first analysis was measured with an electronic time clock. All reactions were performed under pseudo-1st order conditions with the electrophile being at least ten times in excess over Gly-pNA.
For these compounds, the minimum reactivity was estimated in terms of k Gly by plotting ln (A Gly ^ t /A Gly ^0) vs reaction time t (with A Gly ^ t and A Gly ^0 being the peak areas under the chromatographic signal for Gly-pNA at time t and at the beginning of the reaction (t = 0)). Linear regression through 0 (at t = 0) and the first measurement point yields slope s (see Figure S1) which is the pseudo-1st order rate constant k Gly ^pseudo that can be converted with the initial test compound concentration in the reactions mixture (c) into k Gly according to eq . 1 kGly=kGlypseudo/c
2 Ln(AGlyt/AGly0)≈−kGly·c·t+0.5·kGly·kloss·c·t^2 Here k loss is the first order rate constant covering all processes contributing to the loss of the test compounds, except the reaction with Gly-pNA. The regression parameter of the linear part of eq (= k Gly·c) is the pseudo-1st order rate constant k Gly ^pseudo and can be converted into k Gly according to eq (see above).
Linear regression of these plots provides slope s, which is again the pseudo-1st order rate constant, k Gly ^pseudo, and can be used to calculate k Gly according to eq . All experiments to determine k Gly have been conducted at least three times.

[3] = DPRA-like chemoassay with Gly-pNA (24 h percent depletion); conditions: PPB pH 7.4, 24 h, 25 °C, 50-fold excess of test compound
Protocol: as §1, §2, §3, §4, §5, §6, §7, §8

[4] = ref Krutz et al., Sadekar et al., Ponder et al., Karol et al., Hopkins et al.; cited from earlier work
[5] = AAB (ammonium acetate buffer) pH 10.2, 24 h
[6] = reaction with Gly-pNA, phosphate buffer 80 mM, 25 °C, nominal test compound concentration, ≥ values are minimum reactivity
[7] = buffer, pH 7.4, half-lives t 1/2 ± s(t 1/2), PPB (phosphate buffer 80 mM) pH 7.4
[8] = buffer, pH 10.2, half-lives t 1/2 ± s(t 1/2), AAP (ammonium acetate buffer 100 mM) pH 10.2
[9] = buffer, pH 10.2, half-lives t 1/2 ± s(t 1/2), PPB (phosphate buffer 80 mM) pH 10.2
[10] = reaction with Gly-pNA, phosphate buffer, nominal test compound concentration
[11] = aqueous ammonium acetate buffer with acetonitrile, pH 10.2
[12] = PPB (phosphate buffer 80 mM) pH 7.4
[13] = PPB (phosphate buffer 80 mM) pH 10.2
[14] = determined using the free (not bound by water) fraction of F1

Row | SMILES | D DPRA ± s(D DPRA), depletion of the DPRA lysine peptide (DPRA lysine peptide) [%] | D Lys ± s(D Lys), 24 h percent depletion of Lys-pNA [1, 5] | D Lys ± s(D Lys), 24 h percent depletion of Lys-pNA ([1]; PPB pH 10.2, 24 h) | k Gly ± s(k Gly), second-order rate constant [2, 6] [L mol^–1 min^–1] | D Gly ± s(D Gly), 24 h percent depletion of Gly-pNA [3] | half-life (physchem; [7]) [min] | half-life (physchem; [8]) [min] | half-life (physchem; [9]) [min] | Classification as potential respiratory sensitizer or non-sensitizer [4] | log k Gly [2, 10] | further results
1 | Cc1ccc(N=C=O)cc1N=C=O [A1, 2,4-Toluene diisocyanate] | 22.0 ± 1.4 | 18.8 ± 0.6% | 100% | ≥33484 ± 803 | 100% | – | – | – | – | – | half-life (physchem; buffer, pH 7.4, half-lives t 1/2 ± s(t 1/2)): < 1 min; half-life (physchem; buffer, pH 10.2, half-lives t 1/2 ± s(t 1/2)): < 1 min
2 | O=C=Nc1cccc2c(N=C=O)cccc12 [A2, 1,5-naphthalene diisocyanate] | – | 19.9 ± 3.7% | 100% | ≥24928 ± 12821 | 100% | 3.6 ± 1.6 | < 1 | 2.6 ± 1.1 | potential respiratory sensitizer | ≥4.40 | –
3 | Cc1c(N=C=O)cccc1N=C=O [A3, 2,6-toluene diisocyanate] | 26.5 ± 0.7 | 20.7 ± 1.4% | 100% | ≥20880 ± 695 | 100% | < 1 | < 1 | < 1 | potential respiratory sensitizer | ≥4.32 | –
4 | O=C=NCCCCCCN=C=O [B1, hexamethylene diisocyanate] | 41.6 ± 7.3 | 23.3 ± 0.3% | 98.7 ± 2.2% | 451 ± 33 | 100% | – | – | – | potential respiratory sensitizer | 2.65 | –
5 | CC1(C)CC(N=C=O)CC(C)(CN=C=O)C1 (centres unmarked) [B2, isophorone diisocyanate] | 28.0 | 21.5 ± 0.3% | 100% | 256 ± 6 | 100% | – | – | – | potential respiratory sensitizer | 2.41 | –
6 | O=C1C=CC(=O)O1 [C4, maleic anhydride] | 54.0 ± 25.5 | 12.0 ± 1.1% | 100% | ≥5930 ± 160 | 100% | 35.3 ± 1.3 | < 1 | 2.7 | – | 3.77 | –
7 | O=C1OC(=O)C2C3C=CC(C3)C12 (centres unmarked) [C5, himic anhydride] | – | 29.6 ± 0.3% | 98.9 ± 0.1% | 4126 ± 114 | 100% | – | – | – | potential respiratory sensitizer | 3.62 | half-life (physchem; [11]): < 1 min; half-life (physchem; aqueous phosphate buffer with acetonitrile, pH 7.4): 6.79 ± 0.13 min; half-life (physchem; aqueous phosphate buffer with acetonitrile, pH 10.2): 1.3 ± 0.41 min; k Gly ± s(k Gly), second-order rate constant ([2]; reaction with Gly-pNA, phosphate buffer 80 mM, 25 °C, nominal test compound concentration, ≥ values are minimum reactivity, listed as himic anhydride): 4126 L mol^–1 min^–1
8 | CC12CC=CCC1C(=O)OC2=O (centres unmarked) [D2, methyltetrahydrophthalic anhydride] | – | 18.0 ± 0.9% | 100% | 2051 ± 32 | 100% | 2.24 ± 0.03 | < 1 | < 1 | potential respiratory sensitizer | 3.31 | –
9 | O=[N+]([O-])c1ccc(S(=O)(=O)Cl)c([N+](=O)[O-])c1 [E1, 2,4-dinitrobenzenesulfonyl chloride] | – | 13.4% and 13.4 ± 0.8% | 62.6% and 62.6 ± 4.2% | – | 56.1% and 56.1 ± 0.5% | < 1 | < 1 | < 1 | – | – | –
10 | Clc1nc(Cl)nc(Cl)n1 [E2, 2,4,6-trichloro-1,3,5-triazine] | 99.7 ± 0.6 | 91.1 ± 1.1% | 100% | ≥1424 ± 364 | 100% | 1.14 ± 0.05 | < 1 | < 1 | – | – | –
11 | O=[N+]([O-])c1ccc(F)c([N+](=O)[O-])c1 [E3, 1-fluoro-2,4-dinitrobenzene] | – | 84.0 ± 3.3% | 100% | 3.95 ± 0.07 | 72.7% and 72.7 ± 0.7% | – | 73.2 ± 9.7 | 615 ± 31 | non-sensitizer | 0.6 | half-lives t 1/2 ± s(t 1/2) (physchem; [12]): no depletion
12 | O=[N+]([O-])c1ccc(Cl)c([N+](=O)[O-])c1 [E4, 1-chloro-2,4-dinitrobenzene] | 21.1 ± 16.3 | 5.0 ± 0.7% | 8.1 ± 0.5% | – | – | – | – | – | non-sensitizer | –2.20 | half-lives t 1/2 ± s(t 1/2) (physchem; AAP (ammonium acetate buffer 100 mM) pH 10.2): did not show any significant signal depletion; also recorded: no depletion; half-lives t 1/2 ± s(t 1/2) (physchem; [12]): no depletion; half-lives t 1/2 ± s(t 1/2) (physchem; [13]): no depletion
13 | C=C(C#N)C(=O)OCC [F1, ethyl 2-cyanoacrylate] | – | 1.6 ± 0.2% | 40.2% and 40.2 ± 1.9% | 2.22 ± 0.33 | 98.3 ± 0.1% | – | – | – | – | 0.35 | k Gly ± s(k Gly), second-order rate constant [2, 14]: 10886 L mol^–1 min^–1 and 10886 ± 1589 ^c L mol^–1 min^–1; log k Gly [2, 14]: 4.02 and 4.04; free (reactive) fraction, not bound to water ([2]; in the Gly-pNA chemoassay setup): < 0.1%
14 | C=C(C)C(=O)OC [F5, methyl methacrylate] | 10.6 ± 0.8 | 0.7 ± 0.3% | 2.6 ± 1.3% | – | – | – | 3060 ± 625 | 1880 ± 488 | – | – | half-lives t 1/2 ± s(t 1/2) (physchem; [12]): no depletion
15 | Cc1ccc(S(=O)(=O)NCl)cc1 [G2, chloramine T] | 80.8 ± 30.7 | 23.9 ± 1.6% | 53.8 ± 2.9% | 41.9 ± 0.2 | 100% | – | – | – | – | 1.62 | half-lives t 1/2 ± s(t 1/2) (physchem; [12]): no depletion; half-lives t 1/2 ± s(t 1/2) (physchem; [13]): no depletion; half-life (physchem; [11]): 58.5 ± 1.3 min
